Experimental data: ChEMBL document CHEMBL2074560, “cDNA cloning, functional characterization, and tissue distribution of an alternatively spliced variant of organic cation transporter hOCT2 predominantly expressed in the human kidney” (J Am Soc Nephrol, 2002)
One block for each compound: values may come before it.

Key:
Format in all cases: functional, cell-based
[1] = molecular target: T1, Solute carrier family 22 member 2 (Homo sapiens, UniProt O15244); test: TP_TRANSPORTER: uptake in OCT2A-expressing HEK293 cells
T1 sequence (O15244 whole entry): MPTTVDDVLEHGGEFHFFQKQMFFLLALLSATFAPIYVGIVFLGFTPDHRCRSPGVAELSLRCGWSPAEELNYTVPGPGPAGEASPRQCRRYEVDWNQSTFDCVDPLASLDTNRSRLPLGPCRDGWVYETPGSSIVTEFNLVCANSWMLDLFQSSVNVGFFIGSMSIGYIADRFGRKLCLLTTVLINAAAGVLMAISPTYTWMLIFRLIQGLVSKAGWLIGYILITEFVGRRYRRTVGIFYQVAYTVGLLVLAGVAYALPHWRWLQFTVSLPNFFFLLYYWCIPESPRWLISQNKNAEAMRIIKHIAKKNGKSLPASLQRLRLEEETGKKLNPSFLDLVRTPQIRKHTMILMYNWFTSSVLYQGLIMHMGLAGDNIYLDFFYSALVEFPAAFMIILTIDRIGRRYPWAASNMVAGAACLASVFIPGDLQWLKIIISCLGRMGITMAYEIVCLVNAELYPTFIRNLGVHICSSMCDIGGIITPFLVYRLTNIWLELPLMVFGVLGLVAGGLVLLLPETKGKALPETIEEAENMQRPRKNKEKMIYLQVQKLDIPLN

[2] = molecular target: T1, Solute carrier family 22 member 2; test: TP_TRANSPORTER: inhibition of TEA uptake (TEA: 5 uM, MPP+: 1000 uM) in OCT2A-expressing HEK293 cells; settings: hek293, 1000 µM
[3] = molecular target: T1, Solute carrier family 22 member 2; test: TP_TRANSPORTER: inhibition of TEA uptake (TEA: 5 uM, N-acetyl procainamide: 1000 uM) in OCT2-expressing HEK293 cells; settings: hek293, 1000 µM
[4] = molecular target: T1, Solute carrier family 22 member 2; test: TP_TRANSPORTER: inhibition of TEA uptake (TEA: 5 uM, N-acetyl procainamide: 1000 uM) in OCT2A-expressing HEK293 cells; settings: hek293, 1000 µM
[5] = molecular target: T1, Solute carrier family 22 member 2; test: TP_TRANSPORTER: inhibition of TEA uptake (TEA: 5 uM, Amantadine: 100 uM) in OCT2A-expressing HEK293 cells; settings: hek293, 100 µM
[6] = molecular target: T1, Solute carrier family 22 member 2; test: TP_TRANSPORTER: inhibition of TEA uptake (TEA: 5 uM, Creatinine: 1000 uM) in OCT2A-expressing HEK293 cells; settings: hek293, 1000 µM
[7] = molecular target: T1, Solute carrier family 22 member 2; test: TP_TRANSPORTER: inhibition of TEA uptake (TEA: 5 uM, Creatinine: 1000 uM) in OCT2-expressing HEK293 cells; settings: hek293, 1000 µM
[8] = molecular target: T1, Solute carrier family 22 member 2; test: TP_TRANSPORTER: inhibition of TEA uptake (TEA: 5 uM, GPFX: 2500 uM) in OCT2A-expressing HEK293 cells; settings: hek293, 2500 µM
[9] = molecular target: T1, Solute carrier family 22 member 2; test: TP_TRANSPORTER: inhibition of TEA uptake (TEA: 5 uM, GPFX: 2500 uM) in OCT2-expressing HEK293 cells; settings: hek293, 2500 µM
[10] = molecular target: T1, Solute carrier family 22 member 2; test: TP_TRANSPORTER: inhibition of TEA uptake (TEA: 5 uM, Guanidine: 1000 uM) in OCT2A-expressing HEK293 cells; settings: hek293, 1000 µM
[11] = molecular target: T1, Solute carrier family 22 member 2; test: TP_TRANSPORTER: uptake in OCT2-expressing HEK293 cells
[12] = molecular target: T1, Solute carrier family 22 member 2; test: TP_TRANSPORTER: inhibition of TEA uptake (TEA: 5 uM, Guanidine: 1000 uM) in OCT2-expressing HEK293 cells; settings: hek293, 1000 µM
[13] = molecular target: T1, Solute carrier family 22 member 2; test: TP_TRANSPORTER: inhibition of TEA uptake (TEA: 5 uM, Imipramine: 1000 uM) in OCT2-expressing HEK293 cells; settings: hek293, 1000 µM
[14] = molecular target: T1, Solute carrier family 22 member 2; test: TP_TRANSPORTER: inhibition of TEA uptake (TEA: 5 uM, Imipramine: 1000 uM) in OCT2A-expressing HEK293 cells; settings: hek293, 1000 µM
[15] = molecular target: T1, Solute carrier family 22 member 2; test: TP_TRANSPORTER: inhibition of TEA uptake (TEA: 5 uM, Levofloxacin: 2500 uM) in OCT2A-expressing HEK293 cells; settings: hek293, 2500 µM
[16] = molecular target: T1, Solute carrier family 22 member 2; test: TP_TRANSPORTER: inhibition of TEA uptake (TEA: 5 uM, Levofloxacin: 2500 uM) in OCT2-expressing HEK293 cells; settings: hek293, 2500 µM
[17] = molecular target: T1, Solute carrier family 22 member 2; test: TP_TRANSPORTER: inhibition of TEA uptake (TEA: 5 uM, NMN: 1000 uM) in OCT2A-expressing HEK293 cells; settings: hek293, 1000 µM
[18] = molecular target: T1, Solute carrier family 22 member 2; test: TP_TRANSPORTER: inhibition of TEA uptake (TEA: 5 uM, Noradrenaline: 1000 uM) in OCT2A-expressing HEK293 cells; settings: hek293, 1000 µM
[19] = molecular target: T1, Solute carrier family 22 member 2; test: TP_TRANSPORTER: inhibition of TEA uptake (TEA: 5 uM, Noradrenaline: 1000 uM) in OCT2-expressing HEK293 cells; settings: hek293, 1000 µM
[20] = molecular target: T1, Solute carrier family 22 member 2; test: TP_TRANSPORTER: inhibition of TEA uptake (TEA: 5 uM, Procainamide: 1000 uM) in OCT2-expressing HEK293 cells; settings: hek293, 1000 µM
[21] = molecular target: T1, Solute carrier family 22 member 2; test: TP_TRANSPORTER: inhibition of TEA uptake (TEA: 5 uM, Procainamide: 1000 uM) in OCT2A-expressing HEK293 cells; settings: hek293, 1000 µM
[22] = molecular target: T1, Solute carrier family 22 member 2; test: TP_TRANSPORTER: inhibition of TEA uptake (TEA: 5 uM, Serotonin: 1000 uM) in OCT2A-expressing HEK293 cells; settings: hek293, 1000 µM
[23] = molecular target: T1, Solute carrier family 22 member 2; test: TP_TRANSPORTER: inhibition of TEA uptake (TEA: 5 uM, Serotonin: 1000 uM) in OCT2-expressing HEK293 cells; settings: hek293, 1000 µM

SMILES: C[n+]1ccc(-c2ccccc2)cc1
Activity [1]: substrate [+]
Activity [2]: inhibitor [(at a rough estimate) 5 % of control]

Activity [3]: is not an inhibitor [-]
SMILES: CCN(CC)CCNC(=O)c1ccc(NC(C)=O)cc1 [ACECAINIDE]
Activity [4]: inhibitor [(at a rough estimate) 15 % of control]

SMILES: NC12CC3CC(CC(C3)C1)C2 [AMANTADINE]
Activity [5]: inhibitor [(at a rough estimate) 5 % of control]

SMILES: CN/C(=N/CCSCc1nc[nH]c1C)NC#N [CIMETIDINE]
Activity [1]: is not a substrate [-]

SMILES: CN1CC(=O)NC1=N [CREATININE]
Activity [6]: inhibitor [(at a rough estimate) 95 % of control]
Activity [7]: inhibitor [(at a rough estimate) 80 % of control]

SMILES: Cc1c(F)c(N2CCNC(C)C2)cc2c1c(=O)c(C(=O)O)cn2C1CC1 (centres undefined) [GREPAFLOXACIN]
Activity [8]: inhibitor [(at a rough estimate) 5 % of control]
Activity [9]: inhibitor [(at a rough estimate) 30 % of control]

Activity [11]: substrate [+]
Activity [1]: is not a substrate [-]
SMILES: N=C(N)N [GUANIDINE]
Activity [10]: inhibitor [(at a rough estimate) 80 % of control]
Activity [12]: inhibitor [(at a rough estimate) 60 % of control]

SMILES: CN(C)CCCN1c2ccccc2CCc2ccccc21 [IMIPRAMINE]
Activity [13]: inhibitor [(at a rough estimate) 10 % of control]
Activity [14]: inhibitor [(at a rough estimate) 5 % of control]

Activity [11]: is not a substrate [-]
Activity [16]: is not an inhibitor [-]
Activity [1]: is not a substrate [-]
SMILES: C[C@H]1COc2c(N3CCN(C)CC3)c(F)cc3c(=O)c(C(=O)O)cn1c23.C[C@H]1COc2c(N3CCN(C)CC3)c(F)cc3c(=O)c(C(=O)O)cn1c23.O [LEVOFLOXACIN]
Activity [15]: inhibitor [(at a rough estimate) 25 % of control]

SMILES: CNC(=O)c1cccnc1 [NICOTINYL METHYLAMIDE]
Activity [17]: inhibitor [(at a rough estimate) 30 % of control]

Activity [18]: is not an inhibitor [-]
SMILES: NC[C@H](O)c1ccc(O)c(O)c1 [NOREPINEPHRINE]
Activity [19]: inhibitor [(at a rough estimate) 65 % of control]

Activity [20]: is not an inhibitor [-]
SMILES: CCN(CC)CCNC(=O)c1ccc(N)cc1 [PROCAINAMIDE]
Activity [21]: inhibitor [(at a rough estimate) 15 % of control]

SMILES: NCCc1c[nH]c2ccc(O)cc12 [SEROTONIN]
Activity [22]: inhibitor [(at a rough estimate) 35 % of control]
Activity [23]: inhibitor [(at a rough estimate) 55 % of control]

Activity [11]: is not a substrate [-]
Activity [1]: is not a substrate [-]
SMILES: Cc1cn([C@H]2C[C@H](N=[N+]=[N-])[C@@H](CO)O2)c(=O)[nH]c1=O [ZIDOVUDINE]
